Data: the supplement of paper PMC9663587

How the values were obtained:
Rucaparib = compound: CNCc1ccc(-c2[nH]c3cc(F)cc4c3c2CCNC4=O)cc1 [Rucaparib]
Alpelisib/BYL719 = compound: Cc1nc(NC(=O)N2CCC[C@H]2C(N)=O)sc1-c1ccnc(C(C)(C)C(F)(F)F)c1 [Alpelisib/BYL719]
Cediranib/AZD2171 = compound: COc1cc2c(Oc3ccc4[nH]c(C)cc4c3F)ncnc2cc1OCCCN1CCCC1 [Cediranib/AZD2171]
THZ1 [1] = compound: T1, CN(C)C/C=C/C(=O)Nc1ccc(C(=O)Nc2cccc(Nc3ncc(Cl)c(-c4c[nH]c5ccccc45)n3)c2)cc1 [THZ1]
[2] = compound: CC(=O)Nc1cccc(-n2c(=O)n(C3CC3)c(=O)c3c(Nc4ccc(I)cc4F)n(C)c(=O)c(C)c32)c1
BVD523 = compound: CC(C)Nc1cc(-c2c[nH]c(C(=O)N[C@H](CO)c3cccc(Cl)c3)c2)c(Cl)cn1 [BVD523]
[3] = compound: CO[C@@H](C)Cn1c(=O)n(C)c2cnc3ccc(-c4cncc(C(C)(C)O)c4)cc3c21
Saracatinib/AZD0530 = compound: CN1CCN(CCOc2cc(OC3CCOCC3)c3c(Nc4c(Cl)ccc5c4OCO5)ncnc3c2)CC1 [Saracatinib/AZD0530]
THZ531 [4] = compound: T2, CN(C)C/C=C/C(=O)Nc1ccc(C(=O)N2CCC[C@@H](Nc3ncc(Cl)c(-c4c[nH]c5ccccc45)n3)C2)cc1 [THZ531]
[5] = compound: CCCCOc1c(C(=O)c2c(F)cc(C)cc2F)c[nH]c2nncc1-2
AZD1775 = compound: C=CCn1c(=O)c2cnc(Nc3ccc(N4CCN(C)CC4)cc3)nc2n1-c1cccc(C(C)(C)O)n1 [AZD1775]
[6] = compound: COc1ccc2c(c1)[C@]1(C[C@H]1c1ccc3c(/C=C/c4ccc(CN5C[C@@H](C)O[C@@H](C)C5)cc4)n[nH]c3c1)C(=O)N2
[7] = compound: CCc1cnn2c(NCc3ccc[n+]([O-])c3)cc(N3CCCC[C@H]3CCO)nc12; assay: increase in dead-cell fraction, 72 h; higher = more death;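 note: breast cancer cell lines in 384-well plates, stained with Hoechst plus LIVE/DEAD far red dye and imaged, cells above an LDR intensity threshold counted dead, Hoechst-negative corpses included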
[8] = compound: CC(=O)c1c(C)c2cnc(Nc3ccc(N4CCNCC4)cn3)nc2n(C2CCCC2)c1=O; assay: as above
BSJ-03-123 = compound: CC(=O)c1c(C)c2cnc(Nc3ccc(N4CCN(CCOCCOCCOCCNC(=O)COc5cccc6c5C(=O)N(C5CCC(=O)NC5=O)C6=O)CC4)cn3)nc2n(C2CCCC2)c1=O [BSJ-03-123]; assay: as above
THZ1 [9] = compound: T1, THZ1; assay: as above
LEE011/Ribociclib = compound: CN(C)C(=O)c1cc2cnc(Nc3ccc(N4CCNCC4)cn3)nc2n1C1CCCC1 [LEE011/Ribociclib]; assay: as above
THZ531 [10] = compound: T2, THZ531; assay: as above
YKL-5-124 = compound: C=CC(=O)Nc1ccc(C(=O)Nc2[nH]nc3c2CN(C(=O)N[C@H](CN(C)C)c2ccccc2)C3(C)C)cc1 [YKL-5-124]; assay: as above
Neratinib/HKI272 = compound: CCOc1cc2ncc(C#N)c(Nc3ccc(OCc4ccccn4)c(Cl)c3)c2cc1NC(=O)/C=C/CN(C)C [Neratinib/HKI272]; assay: as above
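Throughout, for GR50, 72 h: breast cancer and non-malignant breast epithelial cell lines, Deep Dye Drop or Dye Drop imaging, nine half-log doses, GR normalized to time-zero plates and DMSO-only controls.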

HCC70
GR50, 72 h (Rucaparib): > 10 µM
GR50, 72 h (Alpelisib/BYL719): 4.51 µM
GR50, 72 h (Cediranib/AZD2171): 4.54 µM
GR50, 72 h (THZ1 [1]): 0.0148 µM
GR50, 72 h [2]: 0.0019 µM
GR50, 72 h (BVD523): 1.11 µM
GR50, 72 h [3]: 0.00263 µM
GR50, 72 h (Saracatinib/AZD0530): 0.0644 µM
GR50, 72 h (THZ531 [4]): 0.0623 µM
GR50, 72 h [5]: 0.00336 µM
GR50, 72 h (AZD1775): < 0.001 µM
GR50, 72 h [6]: 0.00349 µM
increase in dead-cell fraction ([7]; 0.0001 µM): 0.0046
increase in dead-cell fraction ([7]; 0.0003162 µM): 0.0037
increase in dead-cell fraction ([7]; 0.001 µM): -0.003
increase in dead-cell fraction ([7]; 0.003162 µM): -0.0058
increase in dead-cell fraction ([7]; 0.01 µM): 0.0306
increase in dead-cell fraction ([7]; 0.03162 µM): 0.699
increase in dead-cell fraction ([7]; 0.1 µM): 0.734
increase in dead-cell fraction ([7]; 0.3162 µM): 0.721
increase in dead-cell fraction ([7]; 1 µM): 0.74
increase in dead-cell fraction ([8]; 0.0003162 µM): -0.0042
increase in dead-cell fraction ([8]; 0.001 µM): 0.0102
increase in dead-cell fraction ([8]; 0.003162 µM): -0.0045
increase in dead-cell fraction ([8]; 0.01 µM): 0.0054
increase in dead-cell fraction ([8]; 0.03162 µM): -0.0062
increase in dead-cell fraction ([8]; 0.1 µM): 0.012
increase in dead-cell fraction ([8]; 0.3162 µM): -0.0151
increase in dead-cell fraction ([8]; 1 µM): -0.0002
increase in dead-cell fraction ([8]; 3.162 µM): -0.0047
increase in dead-cell fraction (BSJ-03-123; 0.001 µM): -0.0022
increase in dead-cell fraction (BSJ-03-123; 0.003162 µM): -0.0076
increase in dead-cell fraction (BSJ-03-123; 0.01 µM): -0.0082
increase in dead-cell fraction (BSJ-03-123; 0.03162 µM): -0.0024
increase in dead-cell fraction (BSJ-03-123; 0.1 µM): 0.0042
increase in dead-cell fraction (BSJ-03-123; 0.3162 µM): -0.0019
increase in dead-cell fraction (BSJ-03-123; 1 µM): -0.0038
increase in dead-cell fraction (BSJ-03-123; 3.162 µM): 0.0046
increase in dead-cell fraction (BSJ-03-123; 10 µM): 0.317
increase in dead-cell fraction (THZ1 [9]; 0.0001 µM): 0.0011
increase in dead-cell fraction (THZ1 [9]; 0.0003162 µM): 0.0017
increase in dead-cell fraction (THZ1 [9]; 0.001 µM): -0.0087
increase in dead-cell fraction (THZ1 [9]; 0.003162 µM): 0.0017
increase in dead-cell fraction (THZ1 [9]; 0.01 µM): 0.0017
increase in dead-cell fraction (THZ1 [9]; 0.03162 µM): 0.227
increase in dead-cell fraction (THZ1 [9]; 0.1 µM): 0.676
increase in dead-cell fraction (THZ1 [9]; 0.3162 µM): 0.872
increase in dead-cell fraction (THZ1 [9]; 1 µM): 0.868
increase in dead-cell fraction (LEE011/Ribociclib; 0.001 µM): -0.0029
increase in dead-cell fraction (LEE011/Ribociclib; 0.003162 µM): 0.0024
increase in dead-cell fraction (LEE011/Ribociclib; 0.01 µM): -0.0096
increase in dead-cell fraction (LEE011/Ribociclib; 0.03162 µM): -0.0087
increase in dead-cell fraction (LEE011/Ribociclib; 0.1 µM): -0.0125
increase in dead-cell fraction (LEE011/Ribociclib; 0.3162 µM): -0.0098
increase in dead-cell fraction (LEE011/Ribociclib; 1 µM): -0.0021
increase in dead-cell fraction (LEE011/Ribociclib; 3.162 µM): -0.0069
increase in dead-cell fraction (LEE011/Ribociclib; 10 µM): -0.0152
increase in dead-cell fraction (THZ531 [10]; 0.0001 µM): -0.0083
increase in dead-cell fraction (THZ531 [10]; 0.0003162 µM): 0.004
increase in dead-cell fraction (THZ531 [10]; 0.001 µM): -0.0113
increase in dead-cell fraction (THZ531 [10]; 0.003162 µM): -0.0062
increase in dead-cell fraction (THZ531 [10]; 0.01 µM): -0.0005
increase in dead-cell fraction (THZ531 [10]; 0.03162 µM): 0.0092
increase in dead-cell fraction (THZ531 [10]; 0.1 µM): 0.227
increase in dead-cell fraction (THZ531 [10]; 0.3162 µM): 0.623
increase in dead-cell fraction (THZ531 [10]; 1 µM): 0.805
increase in dead-cell fraction (YKL-5-124; 0.001 µM): 0.0881
increase in dead-cell fraction (YKL-5-124; 0.003162 µM): 0.0945
increase in dead-cell fraction (YKL-5-124; 0.01 µM): 0.148
increase in dead-cell fraction (YKL-5-124; 0.03162 µM): 0.205
increase in dead-cell fraction (YKL-5-124; 0.1 µM): 0.254
increase in dead-cell fraction (YKL-5-124; 0.3162 µM): 0.285
increase in dead-cell fraction (YKL-5-124; 1 µM): 0.376
increase in dead-cell fraction (YKL-5-124; 3.162 µM): 0.41
increase in dead-cell fraction (YKL-5-124; 10 µM): 0.726
increase in dead-cell fraction (Neratinib/HKI272; 0.0003162 µM): 0.0098
increase in dead-cell fraction (Neratinib/HKI272; 0.001 µM): 0.0142
increase in dead-cell fraction (Neratinib/HKI272; 0.003162 µM): 0.015
increase in dead-cell fraction (Neratinib/HKI272; 0.01 µM): 0.0157
increase in dead-cell fraction (Neratinib/HKI272; 0.03162 µM): 0.0249
increase in dead-cell fraction (Neratinib/HKI272; 0.1 µM): 0.0312
increase in dead-cell fraction (Neratinib/HKI272; 0.3162 µM): 0.0482
increase in dead-cell fraction (Neratinib/HKI272; 1 µM): 0.0703
increase in dead-cell fraction (Neratinib/HKI272; 3.162 µM): 0.147
